Results as given in PMC12040169 (PLOS Biology, 2025).

Test: in vitro
Conditions: human, hela cells, % viability

| Compound | viability at 28.5 h, 10 µM |
| --- | --- |
| COC(=O)Nc1ccc(S(=O)(=O)N2CCCC(C(=O)Nc3ccc4c(c3)OCO4)C2)cc1 (stereo not shown) [CBK265361] | 89.8% |
| CS(=O)(=O)N(CC(=O)NCc1ccccn1)c1ccc(I)cc1 [CBK265369] | 78.8% |
| CC(=O)Oc1ccc(NC(=O)C2CC(Cl)=CCC2C(=O)O)cc1C(=O)O (stereo not shown) [CBK265372] | 100% |
| O=Cc1cn(CCC(=O)O)nc1-c1cc2ccccc2o1 [CBK265376] | 90% |
| COC(=O)c1c(NC(=O)CCCC(=O)O)sc(C)c1C [CBK265382] | 98.2% |
| CCC(C(=O)Nc1sc2c(c1C(N)=O)CCCCCC2)c1ccccc1 (stereo not shown) [CBK265383] | 85.8% |
| O=C(CC(Nc1ccccc1Cl)C(=O)O)c1ccccc1 (stereo not shown) [CBK265386] | 81.1% |
| O=c1cc2oc3cc(O)c(O)cc3c(-c3cccc(OCc4ccc([N+](=O)[O-])cc4)c3)c-2cc1O [CBK265388] | 91% |
| COC(=O)c1sc(NC(=O)C2CCCCC2C(=O)O)c(C(=O)OC)c1C (stereo not shown) [CBK265389] | 106% |
| Cc1cc(Cl)ccc1OCCCC(=O)Nc1sc2c(c1C(N)=O)CCCCCC2 [CBK265390] | 94.8% |
| Cc1ccccc1OCCn1c(=N)n(CC(C)C)c2ccccc21 [CBK265392B] | 94.9% |
| COC(=O)c1c(NC(=O)CCCC(=O)O)sc2c1CCCCC2 [CBK265393] | 85.4% |
| CCCc1cc(C(=O)OC)c(NC(=O)C2CC=CCC2C(=O)O)s1 (stereo not shown) [CBK265397] | 117% |
| Cc1nn(C)cc1CN(C)S(=O)(=O)c1cccc([N+](=O)[O-])c1 [CBK265399] | 79.9% |
| CCOc1ccccc1N1C(=O)CC(Sc2nc(-c3ccccc3)c3cc(Cl)ccc3n2)C1=O (stereo not shown) [CBK265405] | 116% |
| COc1ccc(N2C(=O)c3ccccc3NC2c2cccc(OCC(=O)Nc3ccccc3)c2)cc1 (stereo not shown) [CBK265406] | 108% |
| CCOC(=O)CN1C(=O)S/C(=C/c2cc(C)n(-c3ccc(S(N)(=O)=O)cc3)c2C)C1=O [CBK265410] | 94% |
| CCOC(=O)c1cc(C)sc1NC(=O)CCC(=O)O [CBK265412] | 108% |
| COc1ccc(N2CCN(c3nc(NCCO)nc(N4CCOCC4)n3)CC2)cc1 [CBK265413] | 99.3% |
| O=C(Nc1nc2nccc(-c3ccccc3)n2n1)c1cccc([N+](=O)[O-])c1 [CBK265414] | 87.6% |
| Cc1cc(N2C(=O)c3ccc(C(=O)O)cc3C2=O)ccc1NC(=O)c1cccs1 [CBK265415] | 92.8% |

| Compound | viability at 28.5 h, 10 µM |
| --- | --- |
| CCOC(=O)c1cc(C(C)C)sc1NC(=O)C1C2C=CC(C2)C1C(=O)O (stereo not shown) [CBK265417] | 95.4% |
| COC(=O)c1ccc(C(=O)OC)c(NC(=O)C2CCCCC2C(=O)O)c1 (stereo not shown) [CBK265422] | 88% |
| Cc1ccc(NC(=O)/C=C/c2ccc3c(c2)OCO3)c(NC(=O)/C=C/c2ccc3c(c2)OCO3)c1 [CBK265423] | 114% |
| CC(=O)Nc1cccc(OCC(=O)Nc2ccc(C)c(C)c2)c1 [CBK265429] | 95.9% |
| CCc1c(C)sc(NC(=O)C2C3C=CC(C3)C2C(=O)O)c1C(N)=O (stereo not shown) [CBK265433] | 97.9% |
| COC(=O)c1sccc1NC(=O)c1ccncc1 [CBK265438] | 85.4% |
| O=C(COc1ccc2ccccc2c1)NCCN1CCOCC1 [CBK265444] | 107% |
| O=C(/C=C/c1ccc2c(c1)OCO2)Nc1ccc(S(=O)(=O)Nc2cnc3ccccc3n2)cc1 [CBK265445] | 86.9% |
| O=C(/C=C/c1c(F)cccc1Cl)Nc1nnn[nH]1 [CBK265447] | 102% |
| Cc1oc(CC(C)C)c(CN2CCCCC2)c1C(=O)O [CBK265448C] | 113% |
| CC(Oc1cccc(Cl)c1)C(=O)Nc1ncccn1 (stereo not shown) [CBK265450] | 90.2% |
| CC1=C(C)CC(C(=O)NC(C)CCc2ccccc2)C(C(=O)O)C1 (stereo not shown) [CBK265452] | 99.9% |
| O=C(O)C1C2C=CC(C2)C1C(=O)NCc1ccco1 (stereo not shown) [CBK265453] | 92.7% |
| O=C(Nc1nc2ccccc2[nH]1)C1c2ccccc2Oc2ccccc21 [CBK265454] | 98.9% |
| O=C(CSc1nnc2sc3ccccc3n12)N1c2ccccc2Sc2ccccc21 [CBK265457] | 89% |
| Cc1ccc(-c2cc(C(=O)O)[nH]n2)cc1 [CBK265462] | 101% |
| Cc1onc(-c2ccccc2Cl)c1C(=O)Nc1ccc(S(=O)(=O)N2CCC(C)CC2)cc1 [CBK265463] | 107% |
| COc1cc(C)c(S(=O)(=O)n2c(C)nc3ccccc32)cc1C [CBK265464] | 94% |
| O=C(/C=C/c1ccc(Cl)cc1)Nc1nnn[nH]1 [CBK265468] | 81.8% |
| O=S(=O)(NCc1ccc(CNS(=O)(=O)c2ccccc2)cc1)c1ccccc1 [CBK265471] | 113% |
| c1ccc(CN2CCN(CCN3CCn4c3nc3ccccc34)CC2)cc1 [CBK265472B] | 97.5% |

| Compound | viability at 28.5 h, 10 µM |
| --- | --- |
| O=C(O)C1C2C=CC(O2)C1C(=O)Nc1ccc2c(c1)OCO2 (stereo not shown) [CBK265475] | 88.6% |
| O=C(O)C1CCCCC1C(=O)N1CCN(C(c2ccccc2)c2ccccc2)CC1 (stereo not shown) [CBK265480] | 90.7% |
| S=C(Nc1ccccc1)Nc1nc2ccccc2n1CCOc1ccccc1 [CBK265487] | 113% |
| CC(=O)Nc1ccc(S(=O)(=O)NCCCc2ccccc2)cc1 [CBK265488] | 89.8% |
| O=C(COC(=O)c1ccccc1NC(=O)c1ccccc1)c1ccc2ccccc2c1 [CBK265491] | 94.9% |
| Cc1ccc(OCCOCCN(C)C)c(Cl)c1 [CBK265493G] | 111% |
| Cc1nc(-c2ccc(S(=O)(=O)N3CCC(Cc4ccccc4)CC3)cc2)cs1 [CBK265494] | 108% |
| Cc1ccc(C)c(C(=O)C2=C(O)C(=O)N(CCN(C)C)C2c2cccc(Cl)c2)c1 (stereo not shown) [CBK265495] | 91.4% |
| O=C1NC(=S)S/C1=C\c1cn(-c2ccccc2)nc1-c1ccc(OCc2ccccc2)cc1 [CBK265496] | 79.4% |
| O=C(/C=C/c1ccc(Cl)cc1Cl)Nc1sc2c(c1C(=O)NCc1cccnc1)CCCC2 [CBK265497] | 99.3% |
| O=C(Nc1sc2c(c1C(=O)NCc1cccnc1)CCCC2)c1ccc(Cl)cc1 [CBK265498] | 88.2% |
| Cc1cccc(C)c1OCC(=O)Nc1cccc(Oc2ccc3c(c2)C(=O)N(c2ccccc2)C3=O)c1 [CBK265499] | 100% |
| O=C(O)c1cc2oc3ccccc3c3ccccc3oc2cc1C(=O)Nc1cccc([N+](=O)[O-])c1 [CBK265500] | 99.1% |
| O=S(=O)(c1ccc(-c2csc(-c3cccnc3)n2)cc1)N1CCCCCC1 [CBK265502] | 106% |
| Cc1ccc(C)c(C(=O)C2=C(O)C(=O)N(CCCN3CCOCC3)C2c2cccc([N+](=O)[O-])c2)c1 (stereo not shown) [CBK265503] | 86.2% |
| CC(Oc1ccc(F)cc1)C(=O)Nc1ccc(S(N)(=O)=O)cc1 (stereo not shown) [CBK265506] | 92.3% |
| Cc1cccc(OCC(=O)NCCCc2ccccc2)c1C [CBK265507] | 99.9% |
| CCOc1cc(/C=C2\SC(=S)N(Cc3ccccc3)C2=O)cc(Cl)c1OC(=O)c1ccco1 [CBK265509] | 106% |
| CCOc1cc(/C=C2\SC(=N)NC2=O)ccc1OC(=O)c1cccs1 [CBK265510] | 107% |
| O=[N+]([O-])c1ccccc1OCCNCc1ccccc1 [CBK265511G] | 101% |
| Cc1ccc(C(=O)C(OC(=O)COc2ccccc2C)c2ccccc2)cc1C (stereo not shown) [CBK265512] | 85.3% |

| Compound | viability at 28.5 h, 10 µM |
| --- | --- |
| O=C(O)c1ccc(NC(=O)c2ccccc2NC(=O)c2cccc(Br)c2)cc1 [CBK265517] | 102% |
| O=C(Nc1ccc(C(=O)OCC(=O)c2cccc3ccccc23)cc1)c1ccccc1 [CBK265518] | 115% |
| Cc1ccc(C(=O)C(OC(=O)CN2C(=O)c3cccc([N+](=O)[O-])c3C2=O)c2ccccc2)cc1C (stereo not shown) [CBK265519] | 109% |
| O=C(Cc1ccccc1[N+](=O)[O-])NCCCN1CCOCC1 [CBK265520] | 92% |
| COc1ccccc1Cc1noc(COc2cccc(C)c2C)n1 [CBK265521] | 99.9% |
| O=C(O)c1cccc(NC(=O)c2ccc3c(c2)C(=O)N(Cc2cccnc2)C3=O)c1 [CBK265523] | 88.5% |
| O=C(COC(=O)c1cc(O)nc2ccccc12)c1ccccc1Cl [CBK265524] | 95.2% |
| O=C(OCC(=O)c1cccc2ccccc12)c1cc2ccccc2cc1O [CBK265526] | 102% |
| O=C(NCN1CCN(c2ccccc2F)CC1)c1cccnc1 [CBK265530] | 90% |
| COc1ccccc1N1C(=O)CC(N2CCC(C(N)=O)(N3CCCCC3)CC2)C1=O (stereo not shown) [CBK265533] | 84.3% |
| C(=C\c1ccccc1)/Cn1c(COc2ccccc2)nc2ccccc21 [CBK265535] | 91.6% |
| O=C1N(CN2CCN(C(c3ccccc3)c3ccccc3)CC2)c2ccccc2C12OCCO2 [CBK265537] | 87.1% |
| Nc1nc(CSCCO)nc(Nc2ccc(F)cc2)n1 [CBK265542] | 98.3% |
| Cc1ccc(C(=O)CCC(=O)CCC(=O)O)cc1 [CBK265546] | 95.6% |
| Cc1cccc(C)c1NC(=O)c1c(NC(=O)c2ccco2)sc2c1CCC(C)C2 (stereo not shown) [CBK265550] | 107% |
| COc1ccc(-c2c(-c3ccc(O)cc3O)n[nH]c2C)cc1OC [CBK265552] | 81.7% |
| O=C(c1ccc(F)cc1)c1ccc(CSc2nnc3sc4ccccc4n23)cc1 [CBK265553] | 85.9% |
| NS(=O)(=O)c1ccc(NC(=O)CSc2nc3sc4c(c3c(=O)[nH]2)CCC4)cc1 [CBK265554] | 103% |

Same assay, conditions: human, hela cells, % viability, bulk resorufin, single well

| Compound | viability at 28.5 h, 10 µM |
| --- | --- |
| CCOc1cc(C=C2C(=O)NC(=S)NC2=O)cc(Br)c1OCC(=O)O [CBK265411] | 98.4% |
| O=C(COc1ccc(/C=C2\C(=O)NC(=O)N(c3ccc(O)cc3)C2=O)cc1Cl)Nc1ccccc1 [CBK265425] | 84.4% |
| O=C(O)COc1ccc(/C=C2\C(=O)NC(=O)N(c3ccc(OCc4ccccc4)cc3)C2=O)cc1 [CBK265449] | 83.6% |
| COC(=O)c1ccc(N2C(=O)NC(=O)/C(=C\c3ccccc3OCC(=O)O)C2=O)cc1 [CBK265459] | 84.7% |
